From patent US6737383B1, “Herbicidal oxadiazolidines” (priority 1999, dated 2004)

Columns and labels:
[1] = test system: bedstraw; test: Test B pre/postemergence bedstraw; assay type: in vivo, Galium aparine; details: for Bedstraw plant response rating: Postemergence; for Plant response rating, Bedstraw: Preemergence
Outline: (§1)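 Test chemicals in a non-phytotoxic solvent mixture with surfactant were sprayed preemergence onto planted seeds and postemergence onto plants 2 to 18 cm tall (1- to 4-leaf stage). After twelve to sixteen days in a greenhouse, injury was visually rated against untreated controls from 0 (no effect) to 10 (complete control).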

[2] = test system: surinam grass; test: Test B pre/postemergence surinam grass; assay type: in vivo, Brachiaria decumbens
Outline: as §1

[3] = test system: cocklebur; test: Test B pre/postemergence cocklebur; assay type: in vivo, Xanthium strumarium; details: for Cocklebur plant response rating: Postemergence; for Plant response rating, Cocklebur: Preemergence
Outline: as §1

[4] = test system: corn; test: Test B pre/postemergence corn; assay type: in vivo, Zea mays; details: for Corn plant response rating: Postemergence; for Plant response rating, Corn: Preemergence
Outline: as §1

[5] = test system: crabgrass; test: Test B pre/postemergence crabgrass; assay type: in vivo, Digitaria sanguinalis
Outline: as §1

[6] = test system: giant foxtail; test: Test B pre/postemergence giant foxtail; assay type: in vivo, Setaria faberii
Outline: as §1

[7] = test system: morningglory; test: Test B pre/postemergence morningglory; assay type: in vivo, Ipomoea hederacea; details: for Morningglory plant response rating: Postemergence; for Plant response rating, Morningglory: Preemergence
Outline: as §1

[8] = test system: pigweed; test: Test B pre/postemergence pigweed; assay type: in vivo, Amaranthus retroflexus
Outline: as §1

[9] = test system: rape; test: Test B pre/postemergence rape; assay type: in vivo, Brassica napus
Outline: as §1

[10] = test system: soybean; test: Test B pre/postemergence soybean; assay type: in vivo, Glycine max
Outline: as §1

[11] = test system: sugar beet; test: Test B pre/postemergence sugar beet; assay type: in vivo, Beta vulgaris
Outline: as §1

[12] = test system: velvetleaf; test: Test B pre/postemergence velvetleaf; assay type: in vivo, Abutilon theophrasti
Outline: as §1

[13] = test system: wheat; test: Test B pre/postemergence wheat; assay type: in vivo, Triticum aestivum
Outline: as §1

[14] = test system: purple nutsedge; test: Test B pre/postemergence purple nutsedge; assay type: in vivo, Cyperus rotundus
Outline: as §1

[15] = test system: duck salad; test: Test B flood test duck salad; assay type: in vivo, Heteranthera limosa
Outline: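 Plants were grown to the 2-leaf stage before treatment with test chemical, then held in a greenhouse for twelve to sixteen days. Injury was visually rated against untreated controls on a 0–10 scale, where 0 is no effect and 10 is complete control.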

[16] = Rate 62 g/ha, scale 0 to 10, 0 is no effect, 10 is complete control
[17] = Rate 250 g/ha, scale 0 to 10, 0 no effect, 10 complete control
[18] = Rate 125 g/ha, scale 0 to 10 (0 no effect, 10 complete control)
[19] = Rate 250 g/ha, scale of 0 to 10 where 0 is no effect and 10 is complete control
[20] = Rate 125 g/ha, scale 0 to 10, 0 no effect, 10 complete control
[21] = Postemergence, Rate 62 g/ha, scale 0 to 10, 0 is no effect, 10 is complete control
[22] = Postemergence, Rate 250 g/ha, scale 0 to 10, 0 no effect, 10 complete control
[23] = Preemergence, Rate 62 g/ha, scale 0 to 10, 0 is no effect, 10 is complete control
[24] = Preemergence, Rate 125 g/ha, scale 0 to 10 (0 no effect, 10 complete control)
[25] = Preemergence, Rate 250 g/ha, scale of 0 to 10 where 0 is no effect and 10 is complete control
[26] = Preemergence, Rate 500 g/ha, scale 0 (no effect) to 10 (complete control)
[27] = Rate 125 g/ha, Postemergence, scale 0 to 10, 0 no effect, 10 complete control
[28] = Rate 500 g/ha, scale 0 to 10, 0 no effect, 10 complete control
[29] = Rate 500 g/ha, Postemergence, scale 0 to 10, 0 no effect, 10 complete control

CCc1cccc(C)c1-n1c(=O)on(C(=O)N(c2ccc(F)cc2)C(C)C)c1=O [Compound 52]
10: Crabgrass plant response rating [5, 26] | Giant foxtail plant response rating [6, 26]
6: B. signalgrass plant response rating [2, 26] | Plant response rating, Crabgrass [5, 25] | Crabgrass plant response rating [5, 29] | Redroot pigweed plant response rating [8, 26]
8: Bedstraw plant response rating [1, 17]
3: Corn plant response rating [4, 17] | Giant foxtail plant response rating [6, 22] | Plant response rating, Giant foxtail [6, 23] | Giant foxtail plant response rating [6, 27]
4: Corn plant response rating [4, 28] | Giant foxtail plant response rating [6, 29]
2: Soybean plant response rating [10, 21] | Soybean plant response rating [10, 22] | Soybean plant response rating [10, 27] | Soybean plant response rating [10, 29]
5: Bedstraw plant response rating [1, 20] | Crabgrass plant response rating [5, 22] | Plant response rating, Giant foxtail [6, 24]
7: Plant response rating, Giant foxtail [6, 25]
0: Plant response rating, Bedstraw [1, 16] | Plant response rating, Bedstraw [1, 18] | Plant response rating, Bedstraw [1, 19] | B. signalgrass plant response rating [2, 21] | B. signalgrass plant response rating [2, 22] | Plant response rating, B. signalgrass [2, 23] | Plant response rating, B. signalgrass [2, 24] | Plant response rating, B. signalgrass [2, 25] | B. signalgrass plant response rating [2, 27] | Cocklebur plant response rating [3, 16] | Cocklebur plant response rating [3, 17] | Plant response rating, Cocklebur [3, 16] | Plant response rating, Cocklebur [3, 18] | Plant response rating, Cocklebur [3, 19] | Cocklebur plant response rating [3, 20] | Cocklebur plant response rating [3, 28] | Corn plant response rating [4, 16] | Plant response rating, Corn [4, 16] | Plant response rating, Corn [4, 18] | Plant response rating, Corn [4, 19] | Corn plant response rating [4, 20] | Plant response rating, Crabgrass [5, 23] | Giant foxtail plant response rating [6, 21] | Plant response rating, Morningglory [7, 16] | Plant response rating, Morningglory [7, 18] | Plant response rating, Morningglory [7, 19] | Redroot pigweed plant response rating [8, 21] | Redroot pigweed plant response rating [8, 22] | Plant response rating, Redroot pigweed [8, 23] | Plant response rating, Redroot pigweed [8, 24] | Redroot pigweed plant response rating [8, 27] | Redroot pigweed plant response rating [8, 29] | Rape plant response rating [9, 21] | Rape plant response rating [9, 22] | Plant response rating, Rape [9, 23] | Plant response rating, Rape [9, 24] | Plant response rating, Rape [9, 25] | Rape plant response rating [9, 26] | Rape plant response rating [9, 27] | Rape plant response rating [9, 29] | Plant response rating, Soybean [10, 23] | Plant response rating, Soybean [10, 24] | Plant response rating, Soybean [10, 25] | Soybean plant response rating [10, 26] | Sugarbeets plant response rating [11, 21] | Sugarbeets plant response rating [11, 22] | Plant response rating, Sugarbeets [11, 23] | Plant response rating, Sugarbeets [11, 24] | Plant response rating, Sugarbeets [11, 25] | Sugarbeets plant response rating [11, 26] | Sugarbeets plant response rating [11, 27] | Sugarbeets plant response rating [11, 29] | Velvetleaf plant response rating [12, 21] | Velvetleaf plant response rating [12, 22] | Plant response rating, Velvetleaf [12, 23] | Plant response rating, Velvetleaf [12, 24] | Plant response rating, Velvetleaf [12, 25] | Velvetleaf plant response rating [12, 26] | Velvetleaf plant response rating [12, 27] | Velvetleaf plant response rating [12, 29] | Wheat plant response rating [13, 21] | Wheat plant response rating [13, 22] | Plant response rating, Wheat [13, 23] | Plant response rating, Wheat [13, 24] | Plant response rating, Wheat [13, 25] | Wheat plant response rating [13, 26] | Wheat plant response rating [13, 27] | Wheat plant response rating [13, 29] | Nutsedge plant response rating [14, 21] | Nutsedge plant response rating [14, 22] | Plant response rating, Nutsedge [14, 23] | Plant response rating, Nutsedge [14, 24] | Plant response rating, Nutsedge [14, 25] | Nutsedge plant response rating [14, 26] | Nutsedge plant response rating [14, 27] | Nutsedge plant response rating [14, 29] | Ducksalad plant response rating [15, 21] | Ducksalad plant response rating ([15]; Rate 125 g/ha, Postemergence section (flood test species), scale 0 to 10, 0 no effect, 10 complete control) | Ducksalad plant response rating ([15]; Rate 500 g/ha, listed under Postemergence (flood test species), scale 0 to 10, 0 no effect, 10 complete control) | Ducksalad plant response rating ([15]; flood test, listed under Postemergence, Rate 250 g/ha, scale 0 to 10, 0 no effect, 10 complete control)
1: Bedstraw plant response rating [1, 16] | B. signalgrass plant response rating ([2]; Rate 500 g/ha, Postemergence, scale of 0 to 10 where 0 is no effect and 10 is complete control) | Crabgrass plant response rating [5, 21] | Plant response rating, Crabgrass [5, 24] | Crabgrass plant response rating [5, 27] | Morningglory plant response rating [7, 16] | Morningglory plant response rating [7, 17] | Morningglory plant response rating [7, 20] | Morningglory plant response rating [7, 28] | Plant response rating, Redroot pigweed [8, 25]
